Molecules are shown by their SMILES.

The nature of data set [1]: AUC of SPP100 following single oral dose of [14C] aliskiren hemifumarate at 3 mg.Kg-1 level in marmoset. Type of data set: ADME, organism-based, Callithrix jacchus, Plasma. The note with it: in vivo.
Data set [2] in a line: % SPP100 (0-168h) recovered in urine following single intravenous dose of [14C] aliskiren hemifumarate at 1 mg.Kg-1 level in marmoset. Type of data set: ADME, organism-based, Callithrix jacchus. The note with it: in vivo.
A short description of data set [3]: % SPP100 recovered in bile following single intravenous administration of 10 mg.Kg-1 [14C] aliskiren hemifumarate in male rat. Type of data set: ADME, organism-based, HAN:WIST(SPF). The note with it: in vivo.
A short description of data set [4]: Excretion (0-168h) of radioactivity in faeces following oral administration of [14C] aliskiren hemifumarate at 3 mg.Kg-1 level in marmoset. It is filed as ADME, organism-based, Callithrix jacchus, Feces. The note with it: in vivo.
Data set [5] is described as follows: Concentration of radioactivity in carcass following oral administration of [14C] aliskiren hemifumarate at 100 mg.Kg-1 level measured on day 7 in rat. The note with it: in vivo. Type of data set: ADME, organism-based, Lister-Hooded.
Data set [6] is described as follows: % of radioactivity (24h) recovered in urine following single intravenous administration of 10 mg.Kg-1 [14C] aliskiren hemifumarate in male rat. Type of data set: ADME, organism-based, HAN:WIST(SPF). The note with it: in vivo.
The nature of data set [7]: % of radioactivity (24h) recovered in faeces following single intravenous administration of 10 mg.Kg-1 [14C] aliskiren hemifumarate in male rat. The note with it: in vivo. It is filed as ADME, organism-based, HAN:WIST(SPF), Feces.
Another data set deals with Cytochrome P450 2D6 (Homo sapiens, UniProt P10635). Briefly: Metabolic clearance (ul.min.nmol-1 CYP) of aliskiren hemifumarate for CYP2D6 was determined in human liver microsome incubated with [14C]SPP100 hemifumarate. It is filed as ADME. The note with it: microsomes. Background: Liver microsomes are a subcellular fraction often used to study metabolism.
Another data set has as its target T1, Cytochrome P450 2J2 (Homo sapiens, UniProt P51589).
T1 sequence (P51589 whole entry): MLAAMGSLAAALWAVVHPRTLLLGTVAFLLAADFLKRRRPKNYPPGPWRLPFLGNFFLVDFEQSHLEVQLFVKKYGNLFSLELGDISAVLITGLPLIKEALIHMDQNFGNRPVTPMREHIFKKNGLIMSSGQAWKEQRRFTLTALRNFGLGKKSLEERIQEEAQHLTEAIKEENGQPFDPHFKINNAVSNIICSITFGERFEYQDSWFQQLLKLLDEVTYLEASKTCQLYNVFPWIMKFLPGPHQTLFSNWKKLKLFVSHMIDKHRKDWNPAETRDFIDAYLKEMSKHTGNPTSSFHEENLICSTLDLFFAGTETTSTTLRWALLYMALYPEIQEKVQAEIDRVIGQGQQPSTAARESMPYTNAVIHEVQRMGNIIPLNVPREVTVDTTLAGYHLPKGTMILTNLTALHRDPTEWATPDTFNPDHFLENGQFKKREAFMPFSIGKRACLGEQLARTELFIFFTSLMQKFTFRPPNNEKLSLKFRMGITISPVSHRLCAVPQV
Briefly: Metabolic clearance (ul.min.nmol-1 CYP) of aliskiren hemifumarate for CYP2J2 was determined in human liver microsome incubated with [14C]SPP100 hemifumarate. It is filed as ADME. The note with it: microsomes.

Data set [8] can be described thus: Excretion of radioactivity (48-72h) in faeces following single intravenous dose of 10 mg.Kg-1 [14C] aliskiren hemifumarate in rat. Type of data set: ADME, organism-based, Albino HAN:WIST, Feces. The note with it: in vivo.
The nature of data set [9]: Mean excretion of radioactivity (48-72h) in urine and faeces following single intravenous dose of 10 mg.Kg-1 [14C] aliskiren hemifumarate in rat. It is filed as ADME, organism-based, Albino HAN:WIST, Urine/Feces. The note with it: in vivo.
The nature of data set [10]: Cmax normalised (0-168h) of total radioactivity following single oral administration of [14C] aliskiren hemifumarate at 3 mg.Kg-1 level in marmoset. It is filed as ADME, organism-based, Callithrix jacchus, Plasma. The note with it: in vivo.
A short description of data set [11]: AUC/dose (0-168h) of total radioactivity following single intravenous administration of [14C] aliskiren hemifumarate at 1 mg.Kg-1 level in marmoset. The note with it: in vivo. It is filed as ADME, organism-based, Callithrix jacchus, Plasma.
The nature of data set [12]: AUC of aliskiren hemifumarate following 8 day once-daily dosing of SPP100B oral solution at 40 mg level studied on day 8 in men. Type of data set: ADME, organism-based. The note with it: male, human, plasma.
A short description of data set [13]: AUC of aliskiren hemifumarate following 8 day once-daily dosing of SPP100B oral solution at 640 mg level studied on day 8 in men. Type of data set: ADME, organism-based. The note with it: male, human, plasma.
Data set [14] can be described thus: Tmax (0-96h) of unlabeled aliskiren hemifumarate following oral administration of aliskiren hemifumarate at 100 mg.Kg-1 level in rat. Type of data set: ADME, organism-based. The note with it: Albino HAN:WIST, plasma.
The nature of data set [15]: Effect of 2 week oral dosing of aliskiren hemifumarate at 100 mg.Kg-1 level on plasma creatinine level in female Callithrix jacchus. It is filed as toxicity, organism-based. The note with it: marmoset, 336 h.
Data set [16] can be described thus: Cmax of aliskiren hemifumarate following 2 week oral dosing of aliskiren hemifumarate at 50 mg.Kg-1 level studied on day 14 in male Callithrix jacchus. Type of data set: ADME, organism-based. The note with it: marmoset, plasma.
The nature of data set [17]: AUC/dose (0-96h) of unlabeled aliskiren hemifumarate following intravenous administration of aliskiren hemifumarate at 10 mg.Kg-1 level in rat. Type of data set: ADME, organism-based, Albino HAN:WIST, Plasma. The note with it: in vivo.
Data set [18] is described as follows: Effect of 4 week oral dietary dosing of aliskiren hemifumarate at 2000 mg.Kg-1 level on spermatogenesis in male mouse. Type of data set: toxicity, organism-based, CB6F1-TGrasH2, Testis. The note with it: in vivo, 672 h.
Data set [19] in a line: AUC (0-24h) of aliskiren hemifumarate following 4 week oral dietary dosing of aliskiren hemifumarate at 500 mg.Kg-1 level in male mouse. The note with it: CB6F1-TGrasH2, mouse, plasma. It is filed as ADME, organism-based.
The nature of data set [20]: AUC (0-24h)/dose of aliskiren hemifumarate following 4 week oral dietary dosing of aliskiren hemifumarate at 1000 mg.Kg-1 level in male mouse. The note with it: in vivo. It is filed as ADME, organism-based, CB6F1-TGrasH2, Plasma.
Data set [21] can be described thus: AUC (0-24h)/dose of aliskiren hemifumarate following 4 week oral dietary dosing of aliskiren hemifumarate at 1500 mg.Kg-1 level in male mouse. It is filed as ADME, organism-based, CB6F1-TGrasH2, Plasma. The note with it: in vivo.
Data set [22] is described as follows: Tmax of aliskiren hemifumarate following 2 week oral dosing of aliskiren hemifumarate at 50 mg.Kg-1 level studied on day 1 in male Callithrix jacchus. It is filed as ADME, organism-based. The note with it: marmoset, plasma.
Data set [23] in a line: Tmax of aliskiren hemifumarate following 2 week oral dosing of aliskiren hemifumarate at 50 mg.Kg-1 level studied on day 14 in male Callithrix jacchus. Type of data set: ADME, organism-based. The note with it: marmoset, plasma.
The nature of data set [24]: Tmax of aliskiren hemifumarate following 2 week oral dosing of aliskiren hemifumarate at 10 mg.Kg-1 level studied on day 14 in female Callithrix jacchus. The note with it: marmoset, plasma. Type of data set: ADME, organism-based.
The nature of data set [25]: t1/2 of aliskiren hemifumarate following 2 week oral dosing of aliskiren hemifumarate at 100 mg.Kg-1 level studied on day 1 in male Callithrix jacchus. It is filed as ADME, organism-based. The note with it: marmoset, plasma.
Data set [26] is described as follows: AUC(0-24h) of aliskiren hemifumarate following 2 week oral dosing of aliskiren hemifumarate at 10 mg.Kg-1 level studied on day 1 in female Callithrix jacchus. It is filed as ADME, organism-based. The note with it: marmoset, plasma.
Data set [27] is described as follows: AUC(0-24h) of aliskiren hemifumarate following 2 week oral dosing of aliskiren hemifumarate at 50 mg.Kg-1 level studied on day 1 in female Callithrix jacchus. It is filed as ADME, organism-based. The note with it: marmoset, plasma.
A short description of data set [28]: AUCspec of aliskiren hemifumarate following 2 week oral dosing of aliskiren hemifumarate at 100 mg.Kg-1 level studied on day 14 in male Callithrix jacchus. Type of data set: ADME, organism-based, Plasma. The note with it: marmoset, in vivo, 336 h.
A short description of data set [29]: Tmax of aliskiren hemifumarate following repeated oral administration of [14C] aliskiren hemifumarate at 100 mg.Kg-1 level studied after 2h of dosing on day 10 in rat. Type of data set: ADME, organism-based, Albino HAN:WIST. The note with it: in vivo.

Cytochrome P450 2D6, sequence (P10635 whole entry): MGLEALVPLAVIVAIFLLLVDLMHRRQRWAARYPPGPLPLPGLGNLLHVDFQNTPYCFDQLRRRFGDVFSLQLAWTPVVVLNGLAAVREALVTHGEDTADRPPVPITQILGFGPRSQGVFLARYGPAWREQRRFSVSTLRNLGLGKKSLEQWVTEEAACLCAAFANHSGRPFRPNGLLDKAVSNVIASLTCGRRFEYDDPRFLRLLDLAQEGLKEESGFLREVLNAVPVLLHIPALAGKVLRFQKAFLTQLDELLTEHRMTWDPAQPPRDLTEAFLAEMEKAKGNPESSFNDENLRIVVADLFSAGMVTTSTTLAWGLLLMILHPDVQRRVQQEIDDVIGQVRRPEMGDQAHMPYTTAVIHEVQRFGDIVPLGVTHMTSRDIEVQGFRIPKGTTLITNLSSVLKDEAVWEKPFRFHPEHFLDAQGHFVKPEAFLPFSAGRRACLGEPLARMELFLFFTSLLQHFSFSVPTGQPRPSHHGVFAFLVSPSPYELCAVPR

As a reminder, the AUC is concentration integrated over time. A higher AUC goes with more exposure. As for `COCCCOc1cc(C[C@@H](C[C@H](N)[C@@H](O)C[C@H](C(=O)NCC(C)(C)C(N)=O)C(C)C)C(C)C)ccc1OC`, the AUC in data set [1] stood at 868 ng·h/mL. For the same compound, the figures for the Compound recovery in data set [2] and in data set [3] were 3% and 64.3%, respectively.

As for `COCCCOc1cc(C[C@@H](C[C@H](N)[C@@H](O)C[C@H](C(=O)NCC([14CH3])([14CH3])C(N)=O)C(C)C)C(C)C)ccc1OC.O=C(O)/C=C/C(=O)O`, the Radiolabel recovery is 97.5% in data set [4]; “OUTCOME = Observed, VALUE = residues of radioactivity remained in the carcass at 7 days after dosing” in data set [5]; 6.2% in data set [6]; 4.6% in [7]; 4.69% in data set [8]; 5.05% in data set [9]. Moreover, the CL at Cytochrome P450 2D6 was found to be 74.4 µL·min/nmol; at Cytochrome P450 2J2, 10.6 µL·min/nmol. The Cmax normalised in data set [10] is reported as 0.12 (umol/L)/(mg/kg). In addition, in data set [11], the AUC normalised is given as 52.92 (umol.h/L)/(mg/kg).

Usually Tmax stands for the time at which the peak concentration occurs. In general, Cmax refers to the maximum level reached in the sampled fluid or tissue. Usually AUC(0-t) stands for the area under the concentration-time curve up to a stated or last time point. A low value points to low exposure. In general, half-life refers to the time needed for the level to fall by half in the phase considered. Lower therefore signals fast loss. Turning to `COCCCOc1cc(C[C@@H](C[C@H](N)[C@@H](O)C[C@H](C(=O)NCC(C)(C)C(N)=O)C(C)C)C(C)C)ccc1OC.COCCCOc1cc(C[C@@H](C[C@H](N)[C@@H](O)C[C@H](C(=O)NCC(C)(C)C(N)=O)C(C)C)C(C)C)ccc1OC.O=C(O)/C=C/C(=O)O` [ALISKIREN FUMARATE], the results for the AUC at 192 h in data set [12] and in [13] were 46.7 ng·h/mL and 2970 ng·h/mL, respectively. Besides, the Tmax in [14] was determined as 0.25 h; in data set [22], 1 h; in data set [23], 2 h; in [24] it was 1 h. In data set [15], this compound came in with a CREAT_CHANGE_BY of 130%. In addition, in [16], the Cmax was determined as 12300 ng/mL. Also, the AUC normalised in data set [17] is 1.26 (umol.h/L)/(mg/kg); in data set [20], 4.82 ((ng/mL).hours)/(mg/kg/day); in [21] it was 2.76 ((ng/mL).hours)/(mg/kg/day); in [28], 1.09 ((ug.h.ml-1)/(mg/kg). In addition, the Change in spermatogenesis result in [18] is given as “OUTCOME = No abnormalities. No animals died during the study”. The AUC(0-t) at 24 h turned out to be 1700 ng·h/mL in [19], 21300 ng·h/mL in data set [26] and 56200 ng·h/mL in [27]. For the same compound, the half-life in data set [25] was 12.8 h. Further, the “Tmax(10)” value in data set [29] is listed as 218 h.

These data come from ChEMBL document CHEMBL3508693 (2016).
